The values below come from US4349551A, “Penicillin derivatives and compositions containing them” (Beecham Group Limited, priority 1980, dated 1982).

Each structure is given as a SMILES string. Values after ≈ are worked out from the molar mass of the structure shown. Where two headings read alike, the source gives them in different places.

One series concerns E. coli JT 4. Description: MIC against E. coli JT 4. The class given is cell-based. The note with it: Escherichia coli, JT4, Agar. The text has this:
(§1) | MIC values (μg/ml) of the compounds of | Examples 1 and 2 against a number of | organisms important in human infections | Organism Agar Broth Agar Broth Agar

The next series deals with E. coli JT 425. Description: MIC against E. coli JT 425. The note with it: Escherichia coli, JT425, Agar. Format: cell-based.
Text: as §1

For the next series, the system named is E. coli NCTC 10413. Description: MIC against E. coli NCTC 10413. The class given is cell-based. Conditions: Escherichia coli.
Text: as §1

For series [1], the system named is Ps. aeruginosa NCTC 10662. Description: MIC against Ps. aeruginosa NCTC 10662. Format: cell-based. Conditions: Agar.
Text: as §1

A further series concerns S. marcescens US 32. Description: MIC against S. marcescens US 32. The class given is cell-based. Conditions: Serratia marcescens, US32, Agar.
Text: as §1

The next series concerns K. aerogenes A. Description: MIC against K. aerogenes A. Format: cell-based. The note with it: Klebsiella aerogenes.
Text: as §1

For a further series, the system named is E. cloacae N1. Briefly: MIC against E. cloacae N1. Format: cell-based. The note with it: Enterobacter cloacae, Agar.
Text: as §1

The test system of the next series is P. mirabilis C 977. Description: MIC against P. mirabilis C 977. The class given is cell-based. Conditions: Proteus mirabilis, C977, Agar.
Text: as §1

The subject of the next series is P. mirabilis 889. Description: MIC against P. mirabilis 889. The class given is cell-based. Conditions: Proteus mirabilis, Agar.
Text: as §1

A further series relates to P. morganii. Briefly: MIC against P. morganii. Format: cell-based. Conditions: Morganella morganii, Agar.
Text: as §1

Another series relates to P. rettgeri. Briefly: MIC against P. rettgeri. The class given is cell-based. The note with it: Providencia rettgeri, Agar.
Text: as §1

A further series concerns B. subtilis. Description: MIC against B. subtilis. The note with it: Bacillus subtilis, Agar. Format: cell-based.
Text: as §1

For the next series, the system named is S. aureus Oxford. Description: MIC against S. aureus Oxford. The class given is cell-based. Conditions: Staphylococcus aureus, Agar.
Text: as §1

For the next series, the system named is S. aureus Russell. Description: MIC against S. aureus Russell. Format: cell-based. Conditions: Staphylococcus aureus, Agar.
Text: as §1

For another series, the system named is S. faecalis I. Briefly: MIC against S. faecalis I. The class given is cell-based. The note with it: Enterococcus faecalis, Agar.
Text: as §1

The subject of the next series is S. pyogenes ON 10. Briefly: MIC against S. pyogenes ON 10. The class given is cell-based. Conditions: Streptococcus pyogenes, ON10, Agar.
Text: as §1

The next series has as its system Ps. aeruginosa Dalgleish. Briefly: MIC against Ps. aeruginosa Dalgleish. The class given is cell-based. Conditions: Pseudomonas aeruginosa; Agar; Ps. aeruginosa Dalgleish 10^-2.
Text: as §1

Another series relates to N. catarrhalis 1502. Briefly: MIC against N. catarrhalis 1502. Conditions: Agar. The class given is cell-based.
Text: as §1

Series [2] can be described thus: reconversion of the formyl ester to the parent 6-hydroxymethyl penicillin. The class given is physicochemical. The method, then: The benzyl ester from the previous example (101 mg, 0.15 mmol) in THF (5 ml) was added to prehydrogenated 10% palladium on charcoal (100 mg) in THF (5 ml), water (1 ml). After shaking with hydrogen for 0.5 hours, the catalyst was filtered from the solution and washed well with N sodium bicarbonate solution (40 ml). The filtrate was washed with ethyl acetate (2×40 ml), acidified to pH 1.5 with 1 N-hydrochloric acid and extracted with ethyl acetate (3×40 ml). The combined extracts were washed with brine, dried and evaporated to give the title compound (46 mg, 51%), δ [(CD3)2 CO] 1.12, 1.35 (6H, 2s, 2 x CH3) 1.20 (3H, t, NCH2 CH3), 3.3-3.8 (4H, m, NCH2 and piperazine CH2), 3.8-4.3 (4H, m, CH2 O and piperazine CH2), 4.70 (1H, s, C3-proton), 5.57 (1H, s, C5 -proton), 5.72 (1H, d, J 6 Hz, α-proton) 7.45 (5H, m, aromatic protons), 8.25 (1H, s, CHO), 8.48 ( 1H, s, NH), 10.08 (1H, d, J 6 Hz, NH).

Setting [3] is: Ps. aeruginosa NCTC 10662 10^-2.
Where [4] appears, read: Pseudomonas aeruginosa, NCTC10662, Ps. aeruginosa NCTC 10662, read-out: MIC.

The term MIC denotes the lowest concentration that inhibits growth of the organism. Regarding `CCN1CCN(C(=O)NC(C(=O)N[C@]2(CO)C(=O)N3[C@@H](C(=O)O)C(C)(C)S[C@@H]32)c2csc(N)n2)C(=O)C1=O` (mixture of isomers) [Example 3, 6,α-Hydroxymethyl-6,β-[DL-α'-(4-ethyl-2,3-dioxopiperazine-1-carbonylamino)2-aminothiazole-4-acetamido]penicillanic acid], the MIC is more than 100 µg/mL in the series on E. coli JT 4; 100 µg/mL in the series with E. coli JT 425; 10 µg/mL against E. coli NCTC 10413 (NCTC10413, Agar); more than 100 µg/mL in [1] (setting [3]); more than 100 µg/mL in series [1] (setting [4]); 50 µg/mL in the series with S. marcescens US 32. Besides, the minimal inhibitory concentration (MIC) against K. aerogenes A (Agar) is 1 µg/mL; against E. cloacae N1, 25 µg/mL; with P. mirabilis C 977, 10 µg/mL; against P. mirabilis 889 it was 10 µg/mL; against P. morganii, 10 µg/mL; against P. rettgeri it was 25 µg/mL. The MIC in the series on B. subtilis was more than 100 µg/mL; against S. aureus Oxford, more than 100 µg/mL; in the series on S. aureus Russell it was more than 100 µg/mL; in the series on S. faecalis I, 100 µg/mL; with S. pyogenes ON 10, more than 100 µg/mL.

Regarding `CCN1CCN(C(=O)N[C@@H](C(=O)N[C@]2(CO)C(=O)N3[C@@H](C(=O)O)C(C)(C)S[C@@H]32)c2ccccc2)C(=O)C1=O` [Example 1, 6,α-Hydroxymethyl-6,β-[D,α'-(4-ethyl-2,3-dioxopiperazine-1-carbonylamino)-phenylacetamido]penicillanic acid], the MIC against E. coli JT 4 was 100 µg/mL (≈ 183 µM); against E. coli JT 425 it was 50 µg/mL (≈ 91.3 µM); with E. coli NCTC 10413 (NCTC10413, Agar), 25 µg/mL (≈ 45.7 µM); against E. coli NCTC 10413 (NCTC10413, Broth), 10 µg/mL (≈ 18.3 µM); in [1] (setting [3]) it was more than 100 µg/mL; in [1] (setting [4]) it was more than 100 µg/mL. The MIC is more than 100 µg/mL in the series on Ps. aeruginosa Dalgleish; 50 µg/mL (≈ 91.3 µM) against S. marcescens US 32; 5 µg/mL (≈ 9.13 µM) in the series with K. aerogenes A (Agar); 100 µg/mL (≈ 183 µM) with K. aerogenes A (Broth); 25 µg/mL (≈ 45.7 µM) against E. cloacae N1; 10 µg/mL (≈ 18.3 µM) against P. mirabilis C 977. Besides, the MIC in the series with P. mirabilis 889 is 5 µg/mL (≈ 9.13 µM); with P. morganii it was 25 µg/mL (≈ 45.7 µM); in the series on P. rettgeri, 50 µg/mL (≈ 91.3 µM); with B. subtilis, more than 100 µg/mL; with S. aureus Oxford, more than 100 µg/mL; with S. aureus Russell, more than 100 µg/mL. Further, the MIC with N. catarrhalis 1502 is 1 µg/mL (≈ 1.83 µM); against S. faecalis I, more than 100 µg/mL; in the series on S. pyogenes ON 10 it was 25 µg/mL (≈ 45.7 µM).

On to `CCN1CCN(C(=O)N[C@@H](C(=O)N[C@]2(CO)C(=O)N3[C@@H](C(=O)O)C(C)(C)S[C@@H]32)c2ccc(O)cc2)C(=O)C1=O` [Example 2, 6,α-Hydroxymethyl-6,β-[D,α'-(4-ethyl-2,3-dioxopiperazine-1-carbonylamino)-p-hydroxyphenylacetamido]penicillanic acid], for which the minimum inhibitory concentration (MIC) was 100 µg/mL (≈ 177 µM) against E. coli JT 4; 50 µg/mL (≈ 88.7 µM) against E. coli JT 425; 5 µg/mL (≈ 8.87 µM) in the series with E. coli NCTC 10413 (NCTC10413, Agar); 5 µg/mL (≈ 8.87 µM) with E. coli NCTC 10413 (NCTC10413, Broth); more than 100 µg/mL in series [1] (setting [3]); more than 100 µg/mL in series [1] (setting [4]). Also, the minimal inhibitory concentration (MIC) with Ps. aeruginosa Dalgleish is more than 100 µg/mL; with S. marcescens US 32, 5 µg/mL (≈ 8.87 µM); with K. aerogenes A (Agar), 2.5 µg/mL (≈ 4.44 µM); in the series on K. aerogenes A (Broth), 1 µg/mL (≈ 1.77 µM); against E. cloacae N1, 5 µg/mL (≈ 8.87 µM); against P. mirabilis C 977, 2.5 µg/mL (≈ 4.44 µM). Also, the MIC with P. mirabilis 889 was 2.5 µg/mL (≈ 4.44 µM); against P. morganii it was 5 µg/mL (≈ 8.87 µM); with P. rettgeri, 5 µg/mL (≈ 8.87 µM); in the series on B. subtilis it was more than 100 µg/mL; with S. aureus Oxford it was more than 100 µg/mL; in the series on S. aureus Russell it was more than 100 µg/mL. Moreover, the MIC in the series on N. catarrhalis 1502 is 1 µg/mL (≈ 1.77 µM); against S. faecalis I it was more than 100 µg/mL; in the series with S. pyogenes ON 10 it was 2.5 µg/mL (≈ 4.44 µM).

`CCN1CCN(C(=O)N[C@@H](C(=O)N[C@]2(COC=O)C(=O)N3[C@@H](C(=O)O)C(C)(C)S[C@@H]32)c2ccccc2)C(=O)C1=O` [Example 4, 6,α-Formyloxymethyl-6,β-[D,α'-(4-ethyl-2,3-dioxopiperazine-1-carbonylamino)-phenylacetamido]penicillanic acid]: the “reconversion to the 6-hydroxymethyl compound” value in [2] (in the solvents used for h.p.l.c.) is “complete and instantaneous”. The “parent 6-hydroxymethyl penicillin formed on preparation of the sodium salt” value in series [2] (precipitation from acetone using 2 N sodium ethyl hexanoate in methyl isobutyl ketone) is listed as “an appreciable amount”.
